pKi: −log10 of the molar value.
How the values were obtained:
Nitric oxide synthase 3 = target: T1, Nitric oxide synthase 3 (Homo sapiens, UniProt P29474); assay: Inhibition of human eNOS expressed in Escherichia coli using human oxyhemoglobin by hemoglobin (Hb) NO capture assay
T1 sequence (P29474 whole entry): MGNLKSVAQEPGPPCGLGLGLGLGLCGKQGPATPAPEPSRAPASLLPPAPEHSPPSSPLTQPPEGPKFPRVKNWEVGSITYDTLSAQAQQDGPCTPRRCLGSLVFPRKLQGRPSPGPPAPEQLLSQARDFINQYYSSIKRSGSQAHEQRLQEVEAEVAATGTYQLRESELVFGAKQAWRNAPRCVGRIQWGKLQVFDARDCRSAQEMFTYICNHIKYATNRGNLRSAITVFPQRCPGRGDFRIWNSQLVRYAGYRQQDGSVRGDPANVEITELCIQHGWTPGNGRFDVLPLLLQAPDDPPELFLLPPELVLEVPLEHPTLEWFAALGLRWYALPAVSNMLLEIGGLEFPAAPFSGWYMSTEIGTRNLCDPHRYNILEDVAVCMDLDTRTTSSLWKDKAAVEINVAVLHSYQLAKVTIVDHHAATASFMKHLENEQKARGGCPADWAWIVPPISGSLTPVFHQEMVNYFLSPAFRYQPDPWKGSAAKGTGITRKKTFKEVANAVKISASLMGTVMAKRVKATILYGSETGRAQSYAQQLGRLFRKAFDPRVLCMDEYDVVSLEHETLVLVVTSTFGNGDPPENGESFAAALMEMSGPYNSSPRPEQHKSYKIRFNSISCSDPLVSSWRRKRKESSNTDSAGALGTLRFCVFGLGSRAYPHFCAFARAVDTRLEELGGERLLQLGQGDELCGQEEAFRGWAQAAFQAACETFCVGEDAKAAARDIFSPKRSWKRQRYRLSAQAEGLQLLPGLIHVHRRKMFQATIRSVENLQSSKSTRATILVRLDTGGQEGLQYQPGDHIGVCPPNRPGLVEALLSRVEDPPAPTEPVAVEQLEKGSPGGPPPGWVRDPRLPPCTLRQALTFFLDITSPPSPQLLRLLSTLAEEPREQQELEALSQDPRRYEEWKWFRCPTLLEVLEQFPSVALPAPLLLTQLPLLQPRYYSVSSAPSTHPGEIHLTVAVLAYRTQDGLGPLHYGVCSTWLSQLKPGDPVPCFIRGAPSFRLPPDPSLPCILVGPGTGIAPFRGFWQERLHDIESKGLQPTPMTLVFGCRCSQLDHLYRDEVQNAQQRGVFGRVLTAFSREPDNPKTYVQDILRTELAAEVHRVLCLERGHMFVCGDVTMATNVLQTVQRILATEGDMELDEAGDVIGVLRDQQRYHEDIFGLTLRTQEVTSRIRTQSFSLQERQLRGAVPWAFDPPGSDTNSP

[1] = target: Nitric oxide synthase, inducible (Homo sapiens, UniProt P35228)
Description: Inhibition of human iNOS expressed in Escherichia coli using human oxyhemoglobin by hemoglobin (Hb) NO capture assay

Nitric oxide synthase 1 [2] = target: Nitric oxide synthase 1 (Homo sapiens, UniProt P29475)
Description: Inhibition of human nNOS expressed in Escherichia coli using human oxyhemoglobin by hemoglobin (Hb) NO capture assay

[3] = human, microsomes
[4] = mouse, microsomes
Nitric oxide synthase 1 [5] = target: Nitric oxide synthase 1 (Rattus norvegicus, UniProt P29476)
Sequence of Nitric oxide synthase 1 (Rattus norvegicus, UniProt P29476) (P29476 whole entry): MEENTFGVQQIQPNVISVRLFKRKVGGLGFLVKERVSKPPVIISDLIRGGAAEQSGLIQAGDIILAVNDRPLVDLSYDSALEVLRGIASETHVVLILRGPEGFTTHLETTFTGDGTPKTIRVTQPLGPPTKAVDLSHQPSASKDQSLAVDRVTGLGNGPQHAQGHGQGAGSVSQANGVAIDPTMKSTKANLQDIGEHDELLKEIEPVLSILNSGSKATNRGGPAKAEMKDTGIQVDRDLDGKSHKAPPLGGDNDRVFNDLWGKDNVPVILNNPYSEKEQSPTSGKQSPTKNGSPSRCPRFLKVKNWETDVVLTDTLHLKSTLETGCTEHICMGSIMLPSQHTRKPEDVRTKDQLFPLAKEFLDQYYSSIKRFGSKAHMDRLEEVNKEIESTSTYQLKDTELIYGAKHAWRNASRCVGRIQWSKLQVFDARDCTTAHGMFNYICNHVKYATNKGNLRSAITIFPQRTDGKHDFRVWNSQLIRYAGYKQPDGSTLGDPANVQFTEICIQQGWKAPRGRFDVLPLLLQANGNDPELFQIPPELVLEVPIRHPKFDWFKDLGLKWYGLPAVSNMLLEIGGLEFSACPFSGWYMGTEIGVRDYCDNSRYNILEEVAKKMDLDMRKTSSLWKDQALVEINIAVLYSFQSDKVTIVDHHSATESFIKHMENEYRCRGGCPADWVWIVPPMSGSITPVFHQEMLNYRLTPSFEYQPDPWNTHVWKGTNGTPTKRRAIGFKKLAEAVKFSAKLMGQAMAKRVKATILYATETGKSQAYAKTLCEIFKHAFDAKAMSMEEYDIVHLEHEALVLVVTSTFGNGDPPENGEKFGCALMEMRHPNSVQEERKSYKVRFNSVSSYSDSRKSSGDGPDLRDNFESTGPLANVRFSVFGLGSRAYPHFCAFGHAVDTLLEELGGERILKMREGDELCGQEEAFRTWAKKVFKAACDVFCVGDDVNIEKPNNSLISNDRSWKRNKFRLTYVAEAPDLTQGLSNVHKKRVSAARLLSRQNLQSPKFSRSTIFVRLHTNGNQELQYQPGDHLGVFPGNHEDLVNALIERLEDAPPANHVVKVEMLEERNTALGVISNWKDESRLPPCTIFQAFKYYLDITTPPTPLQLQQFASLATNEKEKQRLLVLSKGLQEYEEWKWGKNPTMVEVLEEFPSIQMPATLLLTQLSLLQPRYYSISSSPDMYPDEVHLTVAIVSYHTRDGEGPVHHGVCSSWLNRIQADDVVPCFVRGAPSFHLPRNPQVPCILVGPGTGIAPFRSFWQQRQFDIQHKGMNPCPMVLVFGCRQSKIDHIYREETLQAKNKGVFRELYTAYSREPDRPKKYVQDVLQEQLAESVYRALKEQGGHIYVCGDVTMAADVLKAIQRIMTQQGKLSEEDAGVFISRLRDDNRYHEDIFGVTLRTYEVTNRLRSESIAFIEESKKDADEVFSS
Description: Inhibition of rat nNOS expressed in Escherichia coli using human oxyhemoglobin by hemoglobin (Hb) NO capture assay

Sequence of Nitric oxide synthase, inducible (P35228 whole entry): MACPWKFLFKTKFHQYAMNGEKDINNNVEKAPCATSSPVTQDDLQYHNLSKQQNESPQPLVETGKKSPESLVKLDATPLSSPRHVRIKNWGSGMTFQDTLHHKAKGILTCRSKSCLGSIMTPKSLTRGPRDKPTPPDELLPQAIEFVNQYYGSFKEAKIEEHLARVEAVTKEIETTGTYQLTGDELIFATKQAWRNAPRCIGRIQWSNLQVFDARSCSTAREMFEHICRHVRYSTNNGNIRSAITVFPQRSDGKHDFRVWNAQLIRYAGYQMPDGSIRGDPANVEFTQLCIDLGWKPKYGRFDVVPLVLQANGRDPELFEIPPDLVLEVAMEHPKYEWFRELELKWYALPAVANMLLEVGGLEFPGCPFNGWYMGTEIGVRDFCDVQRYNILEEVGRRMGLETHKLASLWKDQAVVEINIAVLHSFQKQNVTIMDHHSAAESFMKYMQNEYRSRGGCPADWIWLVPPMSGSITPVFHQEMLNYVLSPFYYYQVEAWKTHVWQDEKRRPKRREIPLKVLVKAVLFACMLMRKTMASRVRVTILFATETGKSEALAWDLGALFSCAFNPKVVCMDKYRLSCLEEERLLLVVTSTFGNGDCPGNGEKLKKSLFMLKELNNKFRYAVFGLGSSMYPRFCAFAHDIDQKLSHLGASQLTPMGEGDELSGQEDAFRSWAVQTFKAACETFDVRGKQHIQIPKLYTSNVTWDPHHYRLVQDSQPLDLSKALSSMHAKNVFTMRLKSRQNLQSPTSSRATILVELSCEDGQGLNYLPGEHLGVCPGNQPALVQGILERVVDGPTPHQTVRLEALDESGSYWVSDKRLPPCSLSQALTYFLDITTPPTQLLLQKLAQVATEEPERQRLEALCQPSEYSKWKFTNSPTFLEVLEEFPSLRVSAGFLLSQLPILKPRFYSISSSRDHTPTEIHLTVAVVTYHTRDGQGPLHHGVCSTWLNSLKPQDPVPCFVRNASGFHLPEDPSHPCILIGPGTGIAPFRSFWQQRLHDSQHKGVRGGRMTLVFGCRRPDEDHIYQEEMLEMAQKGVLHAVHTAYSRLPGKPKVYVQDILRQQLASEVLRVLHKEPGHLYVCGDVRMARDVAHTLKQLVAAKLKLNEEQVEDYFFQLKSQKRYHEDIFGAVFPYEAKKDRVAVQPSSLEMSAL
Sequence of Nitric oxide synthase 1 (Homo sapiens, UniProt P29475) (P29475 whole entry): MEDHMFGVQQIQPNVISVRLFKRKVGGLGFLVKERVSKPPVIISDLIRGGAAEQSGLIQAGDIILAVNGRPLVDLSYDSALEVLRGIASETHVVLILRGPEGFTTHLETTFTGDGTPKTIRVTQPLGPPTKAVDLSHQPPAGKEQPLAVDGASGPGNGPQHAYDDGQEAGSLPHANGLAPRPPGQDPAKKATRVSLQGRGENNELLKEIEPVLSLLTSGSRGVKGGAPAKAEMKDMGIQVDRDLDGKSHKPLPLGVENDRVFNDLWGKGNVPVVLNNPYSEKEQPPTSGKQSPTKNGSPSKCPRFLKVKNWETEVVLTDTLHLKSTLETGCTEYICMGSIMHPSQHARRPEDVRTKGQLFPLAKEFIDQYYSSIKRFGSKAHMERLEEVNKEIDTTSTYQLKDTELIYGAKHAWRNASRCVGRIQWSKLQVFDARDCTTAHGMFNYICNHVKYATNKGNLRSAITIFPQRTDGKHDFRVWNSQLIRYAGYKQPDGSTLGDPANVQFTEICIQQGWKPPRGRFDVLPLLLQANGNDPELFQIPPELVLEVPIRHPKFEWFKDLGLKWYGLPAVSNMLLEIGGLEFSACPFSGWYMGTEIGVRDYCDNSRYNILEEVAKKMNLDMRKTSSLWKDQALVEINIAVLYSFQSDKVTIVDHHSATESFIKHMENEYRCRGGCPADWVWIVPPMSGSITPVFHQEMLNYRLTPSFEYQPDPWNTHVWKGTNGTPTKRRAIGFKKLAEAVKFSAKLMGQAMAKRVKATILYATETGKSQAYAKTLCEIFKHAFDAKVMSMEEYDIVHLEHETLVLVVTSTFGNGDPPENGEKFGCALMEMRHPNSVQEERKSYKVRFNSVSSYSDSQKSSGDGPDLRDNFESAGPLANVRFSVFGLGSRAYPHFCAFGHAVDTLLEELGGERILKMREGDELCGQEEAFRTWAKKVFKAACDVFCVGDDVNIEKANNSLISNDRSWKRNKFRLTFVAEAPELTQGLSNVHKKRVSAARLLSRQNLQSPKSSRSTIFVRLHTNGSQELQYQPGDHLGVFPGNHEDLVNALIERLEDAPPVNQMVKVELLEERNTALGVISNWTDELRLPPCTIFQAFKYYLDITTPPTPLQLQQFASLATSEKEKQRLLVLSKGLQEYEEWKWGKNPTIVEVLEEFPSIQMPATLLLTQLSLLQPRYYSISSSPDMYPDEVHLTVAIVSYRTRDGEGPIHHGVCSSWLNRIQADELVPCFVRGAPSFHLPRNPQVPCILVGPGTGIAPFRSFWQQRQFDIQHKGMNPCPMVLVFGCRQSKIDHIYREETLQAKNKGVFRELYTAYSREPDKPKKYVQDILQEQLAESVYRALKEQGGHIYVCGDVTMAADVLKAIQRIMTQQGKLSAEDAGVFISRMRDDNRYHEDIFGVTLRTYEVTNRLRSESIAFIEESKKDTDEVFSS

Compound: Cc1cc(N)nc(CCc2cc(CCN3CCN(C)CC3)cc(F)c2F)c1
- pKi (Nitric oxide synthase 3): 4.91

Compound: Cc1cc(N)nc(C#Cc2cc(CN(C)C)cc(F)c2F)c1.Cl.Cl
- pKi [1]: 4.05
- pKi (Nitric oxide synthase 1 [2]): 6.50
- pKi (Nitric oxide synthase 3): 5.11

Compound: CCN(CC)CCc1cc(F)c(F)c(CCc2cc(C)cc(N)n2)c1.Cl.Cl
- pKi (Nitric oxide synthase 3): 4.33

Compound: Cc1cc(N)nc(CCc2cc(CCN(C)C)cc(F)c2F)c1.Cl.Cl
- t1/2 [3]: > 60 min
- t1/2 [4]: 29 min

Compound: Cc1cc(N)nc(C#Cc2cc(CCN(C)C)cc(F)c2F)c1
- pKi [1]: 4.31
- pKi (Nitric oxide synthase 1 [2]): 6.48
- pKi (Nitric oxide synthase 3): 4.73

Compound: CN(C)CCc1cc(F)c(F)c(CCc2cc(C(F)(F)F)cc(N)n2)c1.Cl.Cl
- pKi (Nitric oxide synthase 3): 4.17

Compound: CN(C)CCc1cc(F)c(F)c(CCc2cccc(N)n2)c1
- pKi (Nitric oxide synthase 1 [5]): 5.96
- pKi (Nitric oxide synthase 1 [2]): 5.78
- pKi (Nitric oxide synthase 3): 4.21

Compound: Cc1cc(N)nc(CCc2cc(CCN)cc(F)c2F)c1.Cl.Cl
- pKi [1]: 5.76
- pKi (Nitric oxide synthase 3): 4.11

Compound: Cc1cc(N)nc(CCc2cc(CC[C@H]3CCN3C)cc(F)c2F)c1.Cl.Cl
- t1/2 [3]: > 60 min
- t1/2 [4]: 16 min

Compound: Cc1cc(N)nc(/C=C/c2cc(CCN(C)C)cc(F)c2F)c1
- pKi [1]: 4.92
- pKi (Nitric oxide synthase 1 [2]): 7.32
- pKi (Nitric oxide synthase 3): 4.84
